We go through two compounds from PMC12503911, “Cytotoxicity of Atropisomeric [1,1′‐Binaphthalene]‐2,2′‐Diamines (BINAM) and Analogs in Human Cancer Cells: Enantioselectivity, Structure–Activity Relationships, and Mechanism” (Chemmedchem, 2025).

Assay in all cases: biochemical
What all share (design): 33PanQinase radiometric kinase activity assay, residual activity in % of control, contract lab Reaction Biology
What all share (details): mean of intraexperimental duplicates, n = 1

The target in experiment [1] is T1, Mps1/TTK (Homo sapiens, UniProt P33981).
T1 sequence (P33981 1-857): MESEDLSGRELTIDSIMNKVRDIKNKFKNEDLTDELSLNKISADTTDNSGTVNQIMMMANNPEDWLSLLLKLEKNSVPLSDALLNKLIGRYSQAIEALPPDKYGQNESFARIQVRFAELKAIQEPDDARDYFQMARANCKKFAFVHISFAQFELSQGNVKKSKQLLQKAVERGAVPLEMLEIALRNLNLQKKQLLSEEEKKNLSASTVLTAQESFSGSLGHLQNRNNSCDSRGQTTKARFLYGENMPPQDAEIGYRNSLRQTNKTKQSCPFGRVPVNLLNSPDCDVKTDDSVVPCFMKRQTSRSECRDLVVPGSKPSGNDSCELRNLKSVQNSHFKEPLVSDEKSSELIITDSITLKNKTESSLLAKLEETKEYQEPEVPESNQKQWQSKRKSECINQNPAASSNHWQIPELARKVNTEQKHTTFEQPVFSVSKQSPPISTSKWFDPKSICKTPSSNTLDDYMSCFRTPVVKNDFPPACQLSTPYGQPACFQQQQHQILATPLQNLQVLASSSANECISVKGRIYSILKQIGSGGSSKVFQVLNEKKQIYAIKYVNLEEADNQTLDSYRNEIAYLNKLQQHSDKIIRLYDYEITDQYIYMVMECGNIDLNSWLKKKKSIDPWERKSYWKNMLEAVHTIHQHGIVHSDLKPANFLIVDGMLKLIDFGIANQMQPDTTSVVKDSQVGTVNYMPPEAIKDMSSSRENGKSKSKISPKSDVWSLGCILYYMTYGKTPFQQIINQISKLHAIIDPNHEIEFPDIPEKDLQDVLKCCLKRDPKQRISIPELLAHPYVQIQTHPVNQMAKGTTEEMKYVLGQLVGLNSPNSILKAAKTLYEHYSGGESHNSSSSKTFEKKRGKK
On the procedure: (§1) Kinase Screening was performed at Reaction Biology (Freiburg, Germany) by using the ^33PanQinase Assay.^[ [90] ^] Based on this knowledge, we commissioned a kinase screening by the firm Reaction Biology, targeting those kinases whose inhibition has shown an indirect effect on microtubules. In our selection, we included additional kinases that are known to be involved in centrosome amplification (PLK4^[ [82] ^]), centrosome clustering (CDK1/2,^[ [83] ^] PLK1^[ [84] ^]), spindle multipolarity (SRC^[ [85] ^]), microtubule dynamics (AKT1^[ [86] ^]), and LIMK1/2 activation (ROCK1^[ [87] ^]) or are crucial for the mitosis (BUB1B, NEK2/9, WEE1^[ [88] ^]). Nonetheless, 1(R) and 1(S) at 10 µM had almost no inhibitory effects on any of the chosen kinases (Table 4 ). Only Aurora A (mean residual activity for 1(R): 86%, 1(S): 98%) and ASK1 (mean residual activity for 1(R): 90%, 1(S): 117%) were slightly enantioselectively impacted. However, we theorize that those marginal inhibitions are not explanatory for the antiproliferative and morphological effects of 1(R) on cancer cells.

Experiment [2] addresses T2, CHK1 (Homo sapiens, UniProt O14757).
T2 construct: gene CHEK1
T2 sequence (O14757 1-476): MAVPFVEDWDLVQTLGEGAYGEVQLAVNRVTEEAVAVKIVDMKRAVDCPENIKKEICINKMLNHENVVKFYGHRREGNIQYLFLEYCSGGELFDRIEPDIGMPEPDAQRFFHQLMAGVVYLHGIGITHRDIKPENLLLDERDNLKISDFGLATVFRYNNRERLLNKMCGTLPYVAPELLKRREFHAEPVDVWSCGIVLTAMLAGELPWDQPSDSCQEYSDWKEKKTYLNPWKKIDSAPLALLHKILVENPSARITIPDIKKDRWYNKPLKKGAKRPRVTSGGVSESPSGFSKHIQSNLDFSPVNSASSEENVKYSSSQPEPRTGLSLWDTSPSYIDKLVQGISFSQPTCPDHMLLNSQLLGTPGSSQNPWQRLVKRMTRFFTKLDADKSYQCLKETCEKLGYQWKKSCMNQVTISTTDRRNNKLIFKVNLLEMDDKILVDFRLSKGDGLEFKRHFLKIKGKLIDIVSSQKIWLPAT
On the procedure:
as §1

Experiment [3] concerns the target T3, CHK2 (Homo sapiens, UniProt O96017).
T3 construct: gene CHEK2
On the procedure:
as §1

The target in experiment [4] is CDK1/CycB1 (Homo sapiens, UniProt P06493). Here is the method: as §1
CDK1/CycB1, sequence (P06493 whole entry): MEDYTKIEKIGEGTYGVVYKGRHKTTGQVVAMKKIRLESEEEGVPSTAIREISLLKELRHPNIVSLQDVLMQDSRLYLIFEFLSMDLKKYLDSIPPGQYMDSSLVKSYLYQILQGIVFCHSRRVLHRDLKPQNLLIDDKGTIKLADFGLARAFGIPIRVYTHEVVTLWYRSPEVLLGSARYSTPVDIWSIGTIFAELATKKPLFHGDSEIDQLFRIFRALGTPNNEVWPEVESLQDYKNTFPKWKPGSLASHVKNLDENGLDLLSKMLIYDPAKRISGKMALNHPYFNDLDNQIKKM
CDK1/CycB1, sequence (P14635 whole entry partner): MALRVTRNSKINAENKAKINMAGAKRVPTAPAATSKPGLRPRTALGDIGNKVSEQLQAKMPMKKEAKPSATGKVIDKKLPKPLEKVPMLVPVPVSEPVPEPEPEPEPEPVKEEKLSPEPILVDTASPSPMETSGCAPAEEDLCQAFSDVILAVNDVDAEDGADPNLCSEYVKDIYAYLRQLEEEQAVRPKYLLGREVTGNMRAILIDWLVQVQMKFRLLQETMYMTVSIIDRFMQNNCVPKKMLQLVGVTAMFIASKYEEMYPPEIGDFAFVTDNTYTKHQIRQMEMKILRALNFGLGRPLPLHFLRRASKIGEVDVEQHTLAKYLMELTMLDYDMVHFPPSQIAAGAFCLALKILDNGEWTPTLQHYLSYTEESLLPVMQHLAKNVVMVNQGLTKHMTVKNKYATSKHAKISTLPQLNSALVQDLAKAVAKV
The target in experiment [5] is SRC (Homo sapiens, UniProt P12931). On the procedure:
as §1

The target of experiment [6] is AKT1 (Homo sapiens, UniProt P31749). On the procedure:
as §1

Experiment [7] deals with LIMK2 (Homo sapiens, UniProt P53671). Here is the method: as §1
LIMK2, sequence (P53671 whole entry): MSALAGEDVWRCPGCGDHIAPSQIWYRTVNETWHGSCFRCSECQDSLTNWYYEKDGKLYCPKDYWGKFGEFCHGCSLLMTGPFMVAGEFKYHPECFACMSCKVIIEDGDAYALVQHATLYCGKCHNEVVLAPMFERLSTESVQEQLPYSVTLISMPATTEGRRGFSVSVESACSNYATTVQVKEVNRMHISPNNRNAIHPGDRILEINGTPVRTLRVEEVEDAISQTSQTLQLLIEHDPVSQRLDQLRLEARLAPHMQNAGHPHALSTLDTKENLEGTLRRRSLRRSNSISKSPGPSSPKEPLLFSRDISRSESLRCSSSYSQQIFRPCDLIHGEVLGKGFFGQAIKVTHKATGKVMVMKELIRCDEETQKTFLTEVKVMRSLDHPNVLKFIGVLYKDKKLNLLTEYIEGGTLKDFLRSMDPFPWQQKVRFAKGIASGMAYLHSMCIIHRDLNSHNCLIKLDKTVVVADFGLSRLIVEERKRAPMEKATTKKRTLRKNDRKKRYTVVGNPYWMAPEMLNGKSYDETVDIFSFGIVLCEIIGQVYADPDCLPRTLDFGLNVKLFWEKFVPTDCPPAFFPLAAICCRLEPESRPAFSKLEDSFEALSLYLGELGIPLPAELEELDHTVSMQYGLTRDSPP
Where [8] appears, read: read-out: Residual activities [% of control] / 1(R) 10 µM.
Setting [9] is: read-out: Residual activities [% of control] / 1(S) 10 µM.

Where two headings read alike, the source gives them in different places.

AKT1, sequence (P31749 whole entry): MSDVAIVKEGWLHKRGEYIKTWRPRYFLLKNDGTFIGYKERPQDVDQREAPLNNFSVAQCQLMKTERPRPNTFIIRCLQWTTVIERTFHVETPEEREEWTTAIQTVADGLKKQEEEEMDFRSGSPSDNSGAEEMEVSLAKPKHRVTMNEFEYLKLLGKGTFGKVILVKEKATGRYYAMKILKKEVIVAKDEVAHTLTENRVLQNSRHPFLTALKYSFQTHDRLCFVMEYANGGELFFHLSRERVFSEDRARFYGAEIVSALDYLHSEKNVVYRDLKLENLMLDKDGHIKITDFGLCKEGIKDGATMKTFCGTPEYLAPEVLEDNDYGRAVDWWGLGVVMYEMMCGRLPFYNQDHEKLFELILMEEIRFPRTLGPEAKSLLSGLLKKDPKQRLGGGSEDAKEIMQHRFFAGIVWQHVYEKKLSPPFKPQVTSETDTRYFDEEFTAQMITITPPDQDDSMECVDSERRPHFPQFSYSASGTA
SRC, sequence (P12931 whole entry): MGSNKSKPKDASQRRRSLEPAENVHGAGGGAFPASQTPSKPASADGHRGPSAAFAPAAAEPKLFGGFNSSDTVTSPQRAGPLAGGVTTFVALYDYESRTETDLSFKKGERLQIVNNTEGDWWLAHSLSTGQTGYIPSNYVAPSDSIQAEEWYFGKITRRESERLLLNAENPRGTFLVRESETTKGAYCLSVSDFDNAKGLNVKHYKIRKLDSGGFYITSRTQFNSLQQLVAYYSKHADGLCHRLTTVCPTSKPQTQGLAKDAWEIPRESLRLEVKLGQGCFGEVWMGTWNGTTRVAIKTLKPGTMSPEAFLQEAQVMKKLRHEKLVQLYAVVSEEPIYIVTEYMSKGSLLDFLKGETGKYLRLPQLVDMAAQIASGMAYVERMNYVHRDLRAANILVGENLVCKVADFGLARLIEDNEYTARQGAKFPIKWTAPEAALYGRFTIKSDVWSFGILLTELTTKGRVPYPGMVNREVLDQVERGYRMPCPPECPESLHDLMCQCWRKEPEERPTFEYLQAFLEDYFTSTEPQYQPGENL
T3 sequence (O96017 whole entry): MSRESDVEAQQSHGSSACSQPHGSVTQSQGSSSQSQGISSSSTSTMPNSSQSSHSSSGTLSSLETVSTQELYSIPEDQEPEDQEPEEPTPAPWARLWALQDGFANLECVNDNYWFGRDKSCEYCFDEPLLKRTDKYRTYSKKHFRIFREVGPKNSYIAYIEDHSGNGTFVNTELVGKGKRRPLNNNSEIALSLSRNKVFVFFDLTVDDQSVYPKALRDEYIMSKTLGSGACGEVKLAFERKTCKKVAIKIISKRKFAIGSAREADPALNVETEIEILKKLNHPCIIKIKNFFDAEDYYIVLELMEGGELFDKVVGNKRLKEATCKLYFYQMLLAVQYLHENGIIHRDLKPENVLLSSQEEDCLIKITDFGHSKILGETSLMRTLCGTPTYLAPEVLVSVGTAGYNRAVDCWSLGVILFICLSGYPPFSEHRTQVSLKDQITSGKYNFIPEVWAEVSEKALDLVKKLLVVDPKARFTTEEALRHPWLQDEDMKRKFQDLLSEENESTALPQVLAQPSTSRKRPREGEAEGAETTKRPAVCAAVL

On to `Nc1ccc2ccccc2c1-c1c(N)ccc2ccccc12` [1(R), (R)‐[1,1′‐binaphthalene]‐2,2′‐diamine], for which the remaining activity at 10 µM was found to be 98% in experiment [1] (setting [8]); 94% in experiment [2] (setting [8]); 97% in experiment [3] (setting [8]); 101% in experiment [4] (setting [8]); 99% in experiment [5] (setting [8]); 99% in experiment [6] (setting [8]). In experiment [7] (setting [8]), the remaining activity at 10 µM worked out at 106%.
With `Nc1ccc2ccccc2c1-c1c(N)ccc2ccccc12` [1(S), S‐BINAM], the remaining activity at 10 µM in experiment [1] (setting [9]) worked out at 97%; in experiment [2] (setting [9]) it was 95%; in experiment [3] (setting [9]), 104%; in experiment [4] (setting [9]), 100%; in experiment [5] (setting [9]), 103%; in experiment [6] (setting [9]) it was 101%. Besides, in experiment [7] (setting [9]), the remaining activity at 10 µM is 98%.
